According to patent US9951049B2, “Pyrazole linked benzimidazole conjugates and a process for preparation thereof” (Council of Scientific & Industrial Reseach, priority 2014, dated 2018):
“Also recorded” adds a separate entry of the source. Read-outs that look alike come from different tables or passages of the source.

What was measured:
SR = experiment: NCI SRB screen, SR; settings: Homo sapiens, 48 h, read-out: GI50 values
M14 = experiment: NCI SRB screen, M14; settings: Homo sapiens, M14, 48 h, read-out: GI50 values
U251 = experiment: NCI SRB screen, U251; settings: Homo sapiens, U-251, 48 h, read-out: GI50 values
PC-3 = experiment: NCI SRB screen, PC-3; settings: Homo sapiens, PC-3, 48 h, read-out: GI50 values
MCF7 = experiment: NCI SRB screen, MCF7; settings: Homo sapiens, MCF7, 48 h, read-out: GI50 values
786-0 = experiment: NCI SRB screen, 786-0; settings: Homo sapiens, 786-0, 48 h, read-out: GI50 values
TK-10 = experiment: NCI SRB screen, TK-10; settings: Homo sapiens, TK-10, 48 h, read-out: GI50 values
T-47D = experiment: NCI SRB screen, T-47D; settings: Homo sapiens, T47D, 48 h, read-out: GI50 values
HCT-15 = experiment: NCI SRB screen, HCT-15; settings: Homo sapiens, HCT-15, 48 h, read-out: GI50 values
SF-268 = experiment: NCI SRB screen, SF-268; settings: Homo sapiens, SF-268, 48 h, read-out: GI50 values
SNB-19 = experiment: NCI SRB screen, SNB-19; settings: Homo sapiens, SNB-19, 48 h, read-out: GI50 values
SNB-75 = experiment: NCI SRB screen, SNB-75; settings: Homo sapiens, SNB-75, 48 h, read-out: GI50 values
HCT-116 = experiment: NCI SRB screen, HCT-116; settings: Homo sapiens, HCT-116, 48 h, read-out: GI50 values
UACC-62 = experiment: NCI SRB screen, UACC-62; settings: Homo sapiens, UACC-62, 48 h, read-out: GI50 values
OVCAR-8 = experiment: NCI SRB screen, OVCAR-8; settings: Homo sapiens, OVCAR-8, 48 h, read-out: GI50 values
SK-OV-3 = experiment: NCI SRB screen, SK-OV-3; settings: Homo sapiens, SK-OV-3, 48 h, read-out: GI50 values
NCI-H226 = experiment: NCI SRB screen, NCI-H226; settings: Homo sapiens, NCI-H226, 48 h, read-out: GI50 values
NCIH322M = experiment: NCI SRB screen, NCIH322M; settings: Homo sapiens, NCI-H322M, 48 h, read-out: GI50 values
NCI-H522 = experiment: NCI SRB screen, NCI-H522
MALME-3M = experiment: NCI SRB screen, MALME-3M; settings: Homo sapiens, 48 h, read-out: GI50 values
SK-MEL-5 = experiment: NCI SRB screen, SK-MEL-5; settings: Homo sapiens, SK-MEL-5, 48 h, read-out: GI50 values, Melanoma, SK-MEL-5
UACC-257 = experiment: NCI SRB screen, UACC-257; settings: Homo sapiens, UACC-257, 48 h, read-out: GI50 values
RPMI-8226 = experiment: NCI SRB screen, RPMI-8226; settings: Homo sapiens, RPMI-8226, 48 h, read-out: GI50 values
NCI/ADR-RES = experiment: NCI SRB screen, NCI/ADR-RES; settings: Homo sapiens, 48 h, read-out: GI50 values
Colon cancer cell lines = experiment: NCI SRB screen, Colon panel average; settings: Homo sapiens, 48 h, read-out: Log10 GI50 (converted)
Renal cancer cell lines = experiment: NCI SRB screen, Renal panel average; settings: Homo sapiens, 48 h, read-out: Log10 GI50 (converted)
[1] = test system: Ovarian cancer cell lines; experiment: NCI SRB screen, Ovarian panel average; settings: Homo sapiens, 48 h, read-out: Log10 GI50 (converted)
Leukemia cell lines = experiment: NCI SRB screen, Leukemia panel average; settings: Homo sapiens, 48 h, read-out: Log10 GI50 (converted)
Melanoma cell lines = experiment: NCI SRB screen, Melanoma panel average; settings: Homo sapiens, 48 h, read-out: Log10 GI50 (converted)
MDA-MB-435 [2] = experiment: NCI SRB screen, MDA-MB-435 (Breast panel); settings: Homo sapiens, MDA-MB-435, 48 h, read-out: GI50 values
MDA-MB-435 [3] = experiment: NCI SRB screen, MDA-MB-435 (Melanoma panel); settings: Homo sapiens, MDA-MB-435, 48 h, read-out: GI50 values
[4] = test system: fifty six human tumor cell lines; experiment: NCI human tumor cell line screen (48 h, SRB), all cell lines; settings: for GI50: Homo sapiens; for anticancer activity (in words): human cancer cell lines of the NCI panel; for Log10 TGI mean graph midpoint (MG_MID): human tumor cell lines, mean over the panel, total growth inhibition; for potency compared with compounds 6f, 6g, 7g and 10f: against all the cell lines tested
[5] = Homo sapiens, NCI-H522, 48 h, read-out: GI50 values, Non-small cell lung, NCI-H522
[6] = read-out: Log10 GI50 mean graph midpoint (MG_MID) (converted)

| SMILES | GI50 (SR) [nM] | GI50 (M14) [nM] | GI50 (U251) [nM] | GI50 (PC-3) [nM] | GI50 (MCF7) [nM] | GI50 (786-0) [nM] | GI50 (TK-10) [nM] | GI50 (T-47D) [nM] | GI50 (HCT-15) [nM] | GI50 (SF-268) [nM] | GI50 (SNB-19) [nM] | GI50 (SNB-75) [nM] | GI50 (HCT-116) [nM] | GI50 (UACC-62) [nM] | GI50 (OVCAR-8) [nM] | GI50 (SK-OV-3) [nM] | GI50 (NCI-H226) [nM] | GI50 (NCIH322M) [nM] | GI50 (NCI-H522; [5]) [nM] | GI50 (MALME-3M) [nM] | further results |
| --- | --- | --- | --- | --- | --- | --- | --- | --- | --- | --- | --- | --- | --- | --- | --- | --- | --- | --- | --- | --- | --- |
| COc1cc(-c2cc(-c3nc4ccccc4[nH]3)[nH]n2)cc(OC)c1OC [6f, 2-(3-(3,4,5-trimethoxyphenyl)-1H-pyrazol-5-yl)-1H-benzo[d]imidazole] | 3320 | 2570 | 3730 | 2100 | 2790 | 3660 | 4070 | 1110 | 3430 | 6430 | 1780 | 2830 | 3150 | 1640 | 2350 | 3480 | 1140 | 2850 | 1840 | 1950 | GI50 (NCI-H522; read-out: GI50 values, Non-small cell lung, NCI-H522, 48 h): 1870 nM; GI50 (SK-MEL-5): 1340 nM; GI50 (UACC-257): 2100 nM; GI50 (RPMI-8226): 1200 nM; GI50 (NCI/ADR-RES): 2880 nM; GI50 (Colon cancer cell lines): 4790 nM; GI50 (Renal cancer cell lines): 2630 nM; GI50 [1]: 3240 nM; GI50 (Leukemia cell lines): 2290 nM; GI50 (Melanoma cell lines): 2090 nM; GI50 (MDA-MB-435 [2]): 930 nM; GI50 (MDA-MB-435 [3]): 2350 nM; GI50 ([4]; read-out: GI50 value range): 340 to 10000 nM; GI50 [4, 6]: 2880 nM; anticancer activity (in words) [4]: significant anticancer activity; also recorded: pronounced activities; Log10 TGI mean graph midpoint (MG_MID) [4]: −4.83 |
| c1ccc2[nH]c(-c3cc(-c4ccc5c(c4)OCO5)n[nH]3)nc2c1 [6g, 2-(3-(benzo[d][1,3]dioxol-5-yl)-1H-pyrazol-5-yl)-1H-benzo[d]imidazole] | 3370 | 2190 | 2370 | 3640 | 3780 | 4580 | 1090 | 3320 | 3860 | 4770 | 5920 | 1010 | 6360 | 3080 | 3970 | 4980 | 4420 | 6290 | 1980 | 2330 | GI50 (SK-MEL-5): 1530 nM; GI50 (UACC-257): 6000 nM; GI50 (RPMI-8226): 1140 nM; GI50 (NCI/ADR-RES): 4080 nM; GI50 (Colon cancer cell lines): 4070 nM; GI50 (Renal cancer cell lines): 2040 nM; GI50 [1]: 4370 nM; GI50 (Leukemia cell lines): 2510 nM; GI50 (Melanoma cell lines): 3020 nM; GI50 (MDA-MB-435 [2]): 3570 nM; GI50 (MDA-MB-435 [3]): 3120 nM; GI50 ([4]; read-out: GI50 value range): 340 to 10000 nM; GI50 [4, 6]: 3720 nM; anticancer activity (in words) [4]: significant anticancer activity; also recorded: pronounced activities; Log10 TGI mean graph midpoint (MG_MID) [4]: −4.75 |
| COc1cc(-c2cc(-c3nc4cc(Cl)ccc4[nH]3)[nH]n2)cc(OC)c1OC [8f, 5-chloro-2-(3-(3,4,5-trimethoxyphenyl)-1H-pyrazol-5-yl)-1H-benzo[d]imidazole] | 3320 | 2920 | 3380 | 2470 | 2170 | 5320 | 3520 | 1580 | 2900 | 3600 | 7250 | 2710 | 3450 | 1970 | 2260 | 4470 | 1880 | 3650 | 1900 | 2580 | GI50 (SK-MEL-5): 1620 nM; GI50 (UACC-257): 2600 nM; GI50 (RPMI-8226): 1650 nM; GI50 (NCI/ADR-RES): 3160 nM; GI50 (Colon cancer cell lines): 3980 nM; GI50 (Renal cancer cell lines): 3160 nM; GI50 [1]: 3550 nM; GI50 (Leukemia cell lines): 2450 nM; GI50 (Melanoma cell lines): 2450 nM; GI50 (MDA-MB-435 [2]): 2330 nM; GI50 (MDA-MB-435 [3]): 3300 nM; GI50 ([4]; read-out: GI50 value range): 340 to 10000 nM; GI50 [4, 6]: 3020 nM; potency compared with compounds 6f, 6g, 7g and 10f [4]: more potent; anticancer activity (in words) [4]: significant anticancer activity; also recorded: pronounced activities; Log10 TGI mean graph midpoint (MG_MID) [4]: −4.93; mean graph pattern: profile of activity and selectivity ([4]; various cell lines): an interesting profile of activity and selectivity |
| COc1ccc2[nH]c(-c3cc(-c4cc(OC)c(OC)c(OC)c4)n[nH]3)nc2c1 [9f, 5-methoxy-2-(3-(3,4,5-trimethoxyphenyl)-1H-pyrazol-5-yl)-1H-benzo[d]imidazole] | 1740 | 1660 | 2900 | 1030 | 2150 | 2920 | 2210 | 340 | 2500 | 2740 | 2980 | 2230 | 1810 | 1120 | 1150 | 2830 | 460 | 2470 | 1210 | 1740 | GI50 (UACC-257): 1670 nM; GI50 (RPMI-8226): 640 nM; GI50 (NCI/ADR-RES): 2910 nM; GI50 (Colon cancer cell lines): 2290 nM; GI50 (Renal cancer cell lines): 2240 nM; GI50 [1]: 2040 nM; GI50 (Leukemia cell lines): 1260 nM; GI50 (Melanoma cell lines): 1320 nM; GI50 (MDA-MB-435 [2]): 380 nM; GI50 (MDA-MB-435 [3]): 1490 nM; GI50 ([4]; read-out: GI50 value range): 340 to 10000 nM; GI50 [4, 6]: 1700 nM; potency compared with compounds 6f, 6g, 7g and 10f [4]: more potent; growth inhibitory activity (in words) ([4]; against breast cancer and leukemia cell lines): potential growth inhibitory activity; anticancer activity (in words) [4]: significant anticancer activity; also recorded: pronounced activities; Log10 TGI mean graph midpoint (MG_MID) [4]: −5.17 |
| COc1cc(-c2cc(-c3nc4cc(Cl)c(Cl)cc4[nH]3)[nH]n2)cc(OC)c1OC [10f, 5,6-dichloro-2-(3-(3,4,5-trimethoxyphenyl)-1H-pyrazol-5-yl)-1H-benzo[d]imidazole] | 3890 | 3570 | 2970 | 2200 | 2790 | 4090 | 4610 | 1870 | 2890 | 3950 | 5470 | 3120 | 2780 | 1940 | 2510 | 1730 | 2290 | 3290 | 2020 | 2700 | GI50 (SK-MEL-5): 1560 nM; GI50 (UACC-257): 3770 nM; GI50 (RPMI-8226): 1750 nM; GI50 (NCI/ADR-RES): 3250 nM; GI50 (Colon cancer cell lines): 3630 nM; GI50 (Renal cancer cell lines): 3550 nM; GI50 [1]: 4470 nM; GI50 (Leukemia cell lines): 2750 nM; GI50 (Melanoma cell lines): 2820 nM; GI50 (MDA-MB-435 [2]): 3490 nM; GI50 (MDA-MB-435 [3]): 3780 nM; GI50 ([4]; read-out: GI50 value range): 340 to 10000 nM; GI50 [4, 6]: 3310 nM; anticancer activity (in words) [4]: significant anticancer activity; also recorded: pronounced activities; Log10 TGI mean graph midpoint (MG_MID) [4]: −4.88 |
